Legend:
NAPIL1_C132 = target: T1, NAPIL1_C132 (Homo sapiens, UniProt P55209); experiment: IA-DTB cysteine engagement; type: binding; settings: 22Rv1 cells, 20 μM probe, 1 h, relative to DMSO
T1 construct: endogenous in cells; host or cells: 22Rv1
T1 sequence (P55209 1-391): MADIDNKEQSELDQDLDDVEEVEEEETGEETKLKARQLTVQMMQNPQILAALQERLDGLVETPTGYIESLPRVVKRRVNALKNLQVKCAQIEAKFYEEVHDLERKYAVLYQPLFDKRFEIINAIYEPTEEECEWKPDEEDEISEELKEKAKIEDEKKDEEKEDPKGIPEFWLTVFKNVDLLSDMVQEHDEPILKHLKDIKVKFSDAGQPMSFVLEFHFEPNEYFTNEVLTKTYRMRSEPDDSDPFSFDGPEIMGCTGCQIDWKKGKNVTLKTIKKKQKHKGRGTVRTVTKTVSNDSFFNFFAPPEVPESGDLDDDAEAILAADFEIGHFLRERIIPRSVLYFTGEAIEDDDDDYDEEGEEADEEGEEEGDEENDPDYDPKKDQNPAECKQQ
How it was run: (§1)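 Competitive chemoproteomics: residual cysteine reactivity toward IA-DTB in lysates from probe-treated cells was quantified by TMT reporter ions relative to DMSO-treated controls. Replicates sharing cell line, probe, concentration and duration were averaged.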

CKAP4_C100 = target: T2, CKAP4_C100 (Homo sapiens, UniProt Q07065); experiment: IA-DTB cysteine engagement; type: binding; settings: 22Rv1 cells, 20 μM probe, 1 h, relative to DMSO
T2 construct: endogenous in cells; host or cells: 22Rv1
T2 sequence (Q07065 1-602): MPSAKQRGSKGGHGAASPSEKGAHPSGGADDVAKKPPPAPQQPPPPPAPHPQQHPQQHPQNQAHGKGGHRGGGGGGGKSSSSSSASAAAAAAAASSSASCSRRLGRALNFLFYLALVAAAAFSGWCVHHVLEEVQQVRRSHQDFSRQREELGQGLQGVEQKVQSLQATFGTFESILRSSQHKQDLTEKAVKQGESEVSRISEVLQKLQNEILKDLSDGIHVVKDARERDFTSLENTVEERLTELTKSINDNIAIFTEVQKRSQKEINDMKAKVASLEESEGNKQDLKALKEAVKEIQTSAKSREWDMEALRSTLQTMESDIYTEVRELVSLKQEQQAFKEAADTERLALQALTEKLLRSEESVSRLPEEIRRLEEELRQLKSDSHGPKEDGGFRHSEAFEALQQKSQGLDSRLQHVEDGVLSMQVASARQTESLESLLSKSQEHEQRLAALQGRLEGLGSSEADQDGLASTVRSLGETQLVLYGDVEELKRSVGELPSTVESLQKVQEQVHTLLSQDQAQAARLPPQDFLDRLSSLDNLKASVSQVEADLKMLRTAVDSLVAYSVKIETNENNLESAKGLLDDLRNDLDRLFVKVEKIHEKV
How it was run: as §1

C=CC(=O)N1C[C@H](c2ccc(Br)cc2)[C@H]1C(=O)Nc1cccc2cccnc12 [MY-3A, (2S,3S)-1-acryloyl-3-(4-bromophenyl)-N-(quinolin-8-yl)azetidine-2-carboxamide]
% engagement NAPIL1_C132 (NAPIL1_C132): 25%
% engagement CKAP4_C100 (CKAP4_C100): 78.75%

C=CC(=O)N1C[C@H](c2ccc(Br)cc2)[C@@H]1C(=O)Nc1cccc2cccnc12 [MY-1B, (2R,3S)-1-acryloyl-3-(4-bromophenyl)-N-(quinolin-8-yl)azetidine-2-carboxamide]
% engagement NAPIL1_C132 (NAPIL1_C132): 6%
% engagement CKAP4_C100 (CKAP4_C100): 90.25%

C=CC(=O)N1C[C@H](c2ccc(Br)cc2)[C@H]1C(=O)Nc1cccc2cccnc12 [MY-3B, (2S,3S)-1-acryloyl-3-(4-bromophenyl)-N-(quinolin-8-yl)azetidine-2-carboxamide]
% engagement NAPIL1_C132 (NAPIL1_C132): 80%
% engagement CKAP4_C100 (CKAP4_C100): 93.75%

C=CC(=O)N1C[C@@H](c2ccc(Br)cc2)[C@H]1C(=O)Nc1cccc2cccnc12 [MY-1A, (2S,3R)-1-acryloyl-3-(4-bromophenyl)-N-(quinolin-8-yl)azetidine-2-carboxamide]
% engagement NAPIL1_C132 (NAPIL1_C132): −21.5%
% engagement CKAP4_C100 (CKAP4_C100): 84%

— patent publication US20250034216A1, “STEREOSELECTIVE COVALENT LIGANDS FOR ONCOGENIC AND IMMUNOLOGICAL PROTEINS” (The Scripps Research Institute, priority 2021, published 2025)
